Assay results taken from US20190160035A1, “METHOD OF TREATMENT” (QBIOTICS LIMITED, priority 2016, published 2019).
“And” between values parts separate entries of the source, which are not always exact repeats. Equal entries are not always repeated. “Also recorded” adds a separate entry of the source.

Key:
[1] = Example 7: injection site abnormalities after IVP dosing (VCOG CTCAE); format: in vivo, dogs; design: key to VCOG CTCAE Magnitude of injection site abnormality: Grade 1: Mild; asymptomatic or mild symptoms; clinical signs or diagnostic observations only; intervention not indicated; key to VCOG CTCAE Relationship to IVP of injection site abnormality: Unrelated: Clearly not related to IVP; Unlikely: Doubtfully related to IVP; Possible: May be related to IVP; Probably: Likely related to IVP; Definite: Clearly related to IVP
Description: Injection site abnormalities were reported within the immediate post-injection period for six cases. […] An analgesic was prescribed to start on day 0 for one of the six cases (SI-11). […] The VCOG CTCAE classifications of these injection site abnormalities for magnitude and relationship to IVP as determined by the investigator are listed in Table 35.

[2] = test system: cutaneous Mast Cell Tumor (MCT); test: Example 3: long term follow up of cohort 1 dogs for tumor recurrence; format: in vivo
Method: The dogs of cohort 1 in Example 2, treated with 1.0 mg Compound 1 per mL, were followed up post-treatment.
Dog GCV-209 was treated by surgical removal of residual tumor soon after study completion (Day 21).

[3] = test system: MCT (cutaneous and subcutaneous); test: Example 5: Compound 1 injection with oral prednisolone and antihistamine co-therapy, RECIST v.1.1 tumor response; format: in vivo, Canis lupus familiaris (dog)
Description: This study investigates the efficacy and safety of Compound 1 injection for MCT treatment in the presence of corticosteroids administered under defined clinical situations.
Dogs were selected for the study if they met the criteria in Table 1 (Example 1) but where the dog has at least one MCT.
Wherever possible, the tumor and a 2 cm border surrounding the tumor was shaved prior to treatment. To deliver the drug, the needle of the dosing syringe was inserted into the tumor at the injection point and moved in a radial manner in 2- and 3-dimensions with drug delivered to the tumor mass. Study dogs were clinically examined at 2-4 and 24 hours, and 7 (+2), 14 (+2) and 28 (+2) days post-treatment (and unscheduled visits at attending veterinarian discretion).
Each supervising veterinarian was given latitude to provide and record prophylactic and supportive medications as deemed appropriate for managing potential paraneoplastic events and tumor site necrosis following Compound 1 treatment. However, prednisolone and antihistamines were used as co-therapy. Prednisolone therapy commenced on Day −1 and continued for a further 7 days. H1 and H2 antihistamine therapy (chlorpheniramine and famotidine respectively) commenced on the morning of drug treatment and continued for a further 6 days (see Table 23).
RECIST v.1.1 results are summarised in Table 28 which also includes a measure of neoadjuvant prednisolone action (potential tumor shrinkage) between screening and immediate pre-treatment tumor evaluation. Sixteen (16) dogs and eighteen (18) tumors were treated. Raw data for RECIST assessment was collected on Day 0 (immediately pre-treatment) and on Day 28 for fifteen (15) cases. […] With the remaining three (3) cases (C05-T-18, C05-V-01, and C05-V-02), the dogs were not available on Day 28 for RECIST assessment. For dog C05-T-18, the injection site was measured as CR on Days 21 and 37. […] For dog C05-V-01, the injection site was measured as PR on Days 21 and 37 (55% and 60% RECIST reduction respectively). […] For dog […], due to the progressive nature of disease, the animal was removed from study on Day 21.

[4] = test system: cutaneous MCT or subcutaneous MCT; test: Example 4: long term follow up of Example 1 dogs for tumor recurrence; format: in vivo; for Tumor recurrence at case follow-up, approx. month 2 after last treatment: key: NTR = no tumor recurrence; TR = tumor recurrence; for Tumor recurrence at case follow-up, approx. month 3 after last treatment: key: NTR = no tumor recurrence; TR = tumor recurrence; for Tumor recurrence at case follow-up, approx. month 4 after last treatment: key: NTR = no tumor recurrence; TR = tumor recurrence; for Tumor recurrence at case follow-up, approx. month 5 after last treatment: key: NTR = no tumor recurrence; TR = tumor recurrence
Method: The dogs of in Example 1, treated with 1.0 mg Compound 1 per mL in 40% propylene glycol solution (0.4 mL/cm^3 tumor), were followed up post-treatment.
The attending veterinarian advised dog C03-T-04 enter a new treatment program for residual tissue mass treatment due to a putative immune deficiency, and dog C03-T-07 died on Day 4 post treatment.

[5] = immediate post-injection period

With C/C=C(\C)C(=O)O[C@@H]1[C@@H](C)[C@@]2(O)[C@H]([C@@H]3C(C)(C)[C@]13OC(=O)[C@@H](C)CC)[C@@H]1O[C@]1(CO)[C@@H](O)[C@]1(O)C(=O)C(C)=C[C@H]12 [Compound 1, 12-tigloyl-13-(2-methylbutanoyl)-6,7-epoxy-4,5,9,12,13,20-hexahydroxy-1-tigliaen-3-one] the “Number of cases with injection site abnormalities in the immediate post-injection period” value ([1]; 11 cases) was “six”, the “Number of cases that exhibited restlessness” value [1, 5] was “three” and the “Number of cases that experienced pain” value [1, 5] was “Three”. The “Day by which injection site abnormalities resolved” value ([1]; pain and restlessness) was ≤ 1 days, the “VCOG CTCAE Relationship to IVP of injection site abnormality” value ([1]; per case, as determined by the investigator) was “Definite; also recorded: Possible; also recorded: Probable” and the “VCOG CTCAE Magnitude of injection site abnormality” value ([1]; per case, immediate post-injection period) was “Grade 1^f”. The “Tumor recurrence at the treatment site during the post treatment examination period” value ([2]; 8 dogs, examined out to 11.9 to 15.0 months post treatment) was “No tumor recurrence”, the “Tumor recurrence at case follow-up post treatment” value ([2]; cohort 1 dogs (1.0 mg/mL), one value per dog and examination, months 1-14 post treatment) was “Nil” and the “Day on which tumor recurrence was reported” value ([2]; dog NVC-110, 42 days after study completion) was 63 days. The “Share of cases with a CR RECIST result” value ([3]; 14 out of 18 cases) was 78%, the “Number of cases with progressive disease (PD)” value ([3]; Day 28, 15 cases assessed) was 1 and the “Number of cases with complete response (CR)” value ([3]; Day 28, 15 cases assessed, prednisolone, chlorpheniramine, famotidine co-therapy) was 13. The “Tumor course beyond Day 7 post treatment” value ([3]; dog C05-T-09, Patnaik Grade III cutaneous MCT) was “continued to grow”, the RECIST reduction ([3]; dog C05-V-01, Day 21) was 55% and the RECIST reduction ([3]; dog C05-V-01, Day 37) was 60%. The “RECIST reduction of residual mass” value ([3]; dog C05-V-01, Day 57) was 70%, the “RECIST result of injection site” value ([3]; dog C05-V-01, Days 21 and 37) was “PR (partial response (PR, at least 30% decrease in the longest diameter of target lesion))” and the “Residual tumor after initial tumor reduction” value ([3]; dog C05-V-02, vulvar Patnaik Grade III MCT) was “residual tumor mass was evident by Day 21”. For the same compound, the “Number of cases with partial response (PR)” value ([3]; of 18 cases enrolled) was 1, the “Number of cases with progressive disease” value ([3]; of 18 cases enrolled) was 2 and the “Number of cases with a CR RECIST result” value ([3]; out of eighteen (18) treated cases) was 14. For the same compound, the “Time post treatment at which tumor recurrence was identified” value ([4]; 196: dog C03-N-01 (approx. 6 months), 359: dog C03-T-02 (approx. 12 months)) was 196 days and 359 days, the “Time the dog remained tumor free post treatment” value ([4]; dog C03-T-06, approx. 8 months, until euthanased for diabetes and kidney failure) was 265 days and the “Number of dogs with residual tumor mass on Days 28-29 post treatment (retreated)” value ([4]; dogs C03-N-03, C03-T-01, C03-T-03) was 3. For the same compound, the “Tumor recurrence post-repeat treatment” value ([4]; dogs C03-N-03, C03-T-01, C03-T-03, examined out to 389, 339 and 346 days) was “None of these dogs exhibited tumor recurrence”, the “Number of dogs treated successfully with a single treatment and no tumor recurrence within the duration of assessment” value ([4]; of ten dogs available for follow up) was 5 and the “Tumor recurrence at case follow-up, approx. month 1 after last treatment” value ([4]; one value per dog) was “NTR (3×) and TR (TR = tumor recurrence)”. The “Tumor recurrence at case follow-up, approx. month 2 after last treatment” value ([4]; one value per dog) was “NTR”, the “Tumor recurrence at case follow-up, approx. month 3 after last treatment” value ([4]; one value per dog) was “NTR” and the “Tumor recurrence at case follow-up, approx. month 4 after last treatment” value ([4]; one value per dog) was “NTR”. The “Tumor recurrence at case follow-up, approx. month 5 after last treatment” value ([4]; one value per dog) was “NTR”, the “Tumor recurrence at case follow-up, approx. month 6 after last treatment” value ([4]; one value per dog) was “NTR” and the “Tumor recurrence at case follow-up, approx. month 7 after last treatment” value ([4]; one value per dog) was “NTR”. The “Tumor recurrence at case follow-up, approx. month 9 after last treatment” value ([4]; one value per dog) was “NTR”, the “Tumor recurrence at case follow-up, approx. month 11 after last treatment” value ([4]; one value per dog) was “NTR” and the “Tumor recurrence at case follow-up, approx. month 12 after last treatment” value ([4]; one value per dog) was “TR (TR = tumor recurrence) and NTR (4×)”. The Repeat treatment required ([4]; one value per dog, Example 1 dogs) was “Day 28 (2×) and Nil (7×) and Day 29”.
